Data: publication PMC8352664 (The Journal of Biological Chemistry, 2021)

Columns and labels:
Format in all cases: binding, human
TRAV12-1 TCR NR1C = settings: pH 7.5
TRAV12-2 TCR NR2F = settings: pH 7.5
TRAV12-1 TCR NR1A = settings: pH 7.5
TRAV12-1 TCR NR1D = settings: pH 7.5
TRAV12^+ TCRs = test system: TRAV12^+ TCRs

Row | Sequence | KD, NR1C (TRAV12-1 TCR NR1C) | KD, NR2F (TRAV12-2 TCR NR2F) | KD, NR1A (TRAV12-1 TCR NR1A) | KD, NR1D (TRAV12-1 TCR NR1D) | TCR binding to HLA-A2 presenting the changed epitope (TRAV12^+ TCRs)
1 | TLDPRSFLL [PAR1] | N.B. | N.B. | – | – | –
2 | YLQPSTFLL [S^269–277R273S] | N.B. | N.B. | N.B. | N.B. | completely abrogated TCR binding
